Assay results as given in PMC6222329 (Molecules : A Journal of Synthetic Chemistry and Natural …, 2018).

Key:
AChE (Human) = biological target: T1, AChE (Human) (Homo sapiens, UniProt P22303); assay: AChE inhibition, Ellman's method; format: biochemical
T1 construct: purchased Sigma-Aldrich (Steinheim, Germany)
Description: (§1) The assay was performed in two steps.
(§2) All enzymes were obtained from Sigma-Aldrich (Steinheim, Germany). Ellman’s reagent and the substrates were obtained from Fluka (Buchs, Switzerland). The chemicals used to prepare the buffer solution were purchased from Merck (Darmstadt, Germany).
(§3) The enzyme inhibitory activities of the synthesized compounds were investigated by applying Ellman’s method. Enzyme solutions were dissolved in gelatin solution (1%; 2.5 units/mL). […] Then, the reaction was initiated by the addition of Ellman’s reagent 5,5′-Dithiobis(2-nitrobenzoic acid) (DTNB; 20 µL/well, 10 mM) and the substrate (10 µL/well, 75 mM). […] The enzyme solution was processed as a control. All readings were adjusted with blank-reading. All assays were performed in four independent wells. […] Absorbance differences between the two readings were taken, and percentage inhibition rates were calculated according to the following formula: % Inhibition=[(A(C)−A(B))−(A(I)−A(B))]/(A(C)−A(B))×100.
(§4) • Blank (B): the well in which the inhibitor compound and substrate were not added; • Control (C): the well where the inhibitor compound was not added; • A(B): the difference in absorbance reading for the blank; • A(C): the difference in absorbance reading for the control; • A(I): the difference in absorbance reading for the inhibitor compounds.

[1] = biological target: T2, AChE (Electrophorus electricus) (Electrophorus electricus, UniProt O42275); assay: AChE inhibition, Ellman's method; format: biochemical
T2 construct: purchased Sigma-Aldrich (Steinheim, Germany)
Description: as §1, §2, §3, §4

BChE (Human) = biological target: T3, BChE (Human) (Homo sapiens, UniProt P06276); assay: BChE inhibition, Ellman's method; format: biochemical; settings: for IC50: read-out: BChE (Human) IC50
T3 construct: purchased Sigma-Aldrich (Steinheim, Germany)
Description: as §1, §2, §3, §4

[2] = system: murine fibroblast healthy cell line (NIH3T3); assay: MTT cell viability assay; format: cell-based; settings: 24 h, 0.000316 µM to 1000 µM, read-out: IC50 against NIH3T3
Description: The active compounds (4a, 4b, 4e, 4i, 4m, 4n, 4o, and 4t) were chosen to determine their cytotoxic activity toward a murine fibroblast healthy cell line (NIH3T3). After incubating the cells with active compounds at concentrations of 0.000316 µM to1000 µM for 24 h, the cell viability was measured using the 3-(4,5-dimethylthiazol-2-yl)-2,5-diphenyltetrazolium (MTT) assay. The inhibition percentage was calculated for each concentration of the test compounds. The IC50 values of the compounds were determined using a non-linear regression analysis over the calculated percentage inhibition values, and they are presented in Table 2. Accordingly, the cytotoxicity test proposed that the active derivatives were nontoxic against NIH3T3 cells at their active concentrations against BChE.
Healthy murine embryonic fibroblast cells (NIH3T3 cell line) were used for the cytotoxicity tests. The cell line and selected compounds were prepared for an MTT assay as reported previously. The optical densities (OD) of 96 well plates were recorded at 540 nm. […]

BChE (Equine) = biological target: T4, BChE (Equine) (Equus caballus, UniProt P81908); assay: biochemical; format: biochemical
T4 construct: purchased Sigma-Aldrich (Steinheim, Germany)
Description: as §1, §2, §3, §4

T2 sequence (O42275 24-633): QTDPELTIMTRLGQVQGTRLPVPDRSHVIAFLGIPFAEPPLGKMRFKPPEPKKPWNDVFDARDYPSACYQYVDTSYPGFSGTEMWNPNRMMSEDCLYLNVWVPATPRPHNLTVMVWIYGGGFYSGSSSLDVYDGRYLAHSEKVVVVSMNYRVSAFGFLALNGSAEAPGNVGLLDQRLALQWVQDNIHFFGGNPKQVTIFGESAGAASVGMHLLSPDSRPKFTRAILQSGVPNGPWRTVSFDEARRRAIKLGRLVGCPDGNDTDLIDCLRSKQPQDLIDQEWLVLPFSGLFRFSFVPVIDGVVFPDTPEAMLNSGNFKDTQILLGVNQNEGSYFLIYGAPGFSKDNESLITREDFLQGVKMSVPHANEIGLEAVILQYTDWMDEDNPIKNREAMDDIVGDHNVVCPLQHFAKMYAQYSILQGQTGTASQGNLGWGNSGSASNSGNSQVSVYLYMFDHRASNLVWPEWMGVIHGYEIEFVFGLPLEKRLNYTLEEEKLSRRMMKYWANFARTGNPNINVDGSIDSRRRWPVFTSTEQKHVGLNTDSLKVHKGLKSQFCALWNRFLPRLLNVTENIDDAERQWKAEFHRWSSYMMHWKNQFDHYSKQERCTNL
T1 sequence (P22303 32-614): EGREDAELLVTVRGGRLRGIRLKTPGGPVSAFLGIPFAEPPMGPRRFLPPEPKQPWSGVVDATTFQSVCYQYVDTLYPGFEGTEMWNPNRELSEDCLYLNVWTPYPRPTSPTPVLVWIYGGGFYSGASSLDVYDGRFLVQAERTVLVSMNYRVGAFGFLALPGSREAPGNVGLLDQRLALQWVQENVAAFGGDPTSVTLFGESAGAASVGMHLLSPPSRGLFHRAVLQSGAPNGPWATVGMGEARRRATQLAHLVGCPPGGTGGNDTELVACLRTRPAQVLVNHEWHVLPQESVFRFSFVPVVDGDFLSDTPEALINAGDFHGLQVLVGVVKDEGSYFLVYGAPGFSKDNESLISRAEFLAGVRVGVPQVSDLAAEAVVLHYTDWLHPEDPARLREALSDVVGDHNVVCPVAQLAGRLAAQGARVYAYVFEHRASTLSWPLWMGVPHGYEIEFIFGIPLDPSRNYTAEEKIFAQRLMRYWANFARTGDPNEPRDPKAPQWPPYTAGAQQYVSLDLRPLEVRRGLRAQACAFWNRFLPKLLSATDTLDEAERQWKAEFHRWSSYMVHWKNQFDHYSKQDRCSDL
T4 sequence (P81908 whole entry): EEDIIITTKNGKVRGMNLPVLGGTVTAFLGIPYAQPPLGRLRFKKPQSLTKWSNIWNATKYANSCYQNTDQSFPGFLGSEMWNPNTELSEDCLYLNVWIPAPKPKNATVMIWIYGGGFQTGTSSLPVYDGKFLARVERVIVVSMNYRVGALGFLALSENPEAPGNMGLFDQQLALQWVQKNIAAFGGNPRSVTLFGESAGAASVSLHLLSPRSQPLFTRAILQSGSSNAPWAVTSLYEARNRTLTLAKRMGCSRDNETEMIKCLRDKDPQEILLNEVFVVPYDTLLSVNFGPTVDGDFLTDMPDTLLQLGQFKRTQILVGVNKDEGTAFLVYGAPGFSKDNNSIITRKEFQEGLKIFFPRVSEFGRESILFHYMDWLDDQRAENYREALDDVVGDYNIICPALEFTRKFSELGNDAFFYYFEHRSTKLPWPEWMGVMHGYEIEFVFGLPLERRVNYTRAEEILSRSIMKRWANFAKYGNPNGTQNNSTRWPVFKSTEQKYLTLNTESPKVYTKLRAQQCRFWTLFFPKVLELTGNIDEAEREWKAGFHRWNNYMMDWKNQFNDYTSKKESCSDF
T3 sequence (P06276 29-602): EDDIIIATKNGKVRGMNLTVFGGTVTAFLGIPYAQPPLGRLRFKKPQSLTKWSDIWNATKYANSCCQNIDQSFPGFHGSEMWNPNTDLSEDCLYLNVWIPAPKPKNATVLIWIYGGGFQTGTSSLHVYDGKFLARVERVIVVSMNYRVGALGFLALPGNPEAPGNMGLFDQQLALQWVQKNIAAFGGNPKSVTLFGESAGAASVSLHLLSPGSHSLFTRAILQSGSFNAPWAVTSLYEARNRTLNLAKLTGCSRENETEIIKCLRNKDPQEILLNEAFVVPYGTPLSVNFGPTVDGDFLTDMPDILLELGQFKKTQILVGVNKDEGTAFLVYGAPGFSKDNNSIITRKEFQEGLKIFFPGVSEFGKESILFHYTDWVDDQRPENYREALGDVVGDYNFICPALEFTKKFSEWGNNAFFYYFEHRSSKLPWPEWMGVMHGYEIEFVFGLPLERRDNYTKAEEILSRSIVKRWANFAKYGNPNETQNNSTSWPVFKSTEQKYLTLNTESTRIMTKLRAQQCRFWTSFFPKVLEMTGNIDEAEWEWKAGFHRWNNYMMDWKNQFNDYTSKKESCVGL

SMILES	AChE (Human) inhibitory activity (%) ± SD (AChE (Human); 10^-3 M) [%]	AChE (Human) inhibitory activity (%) ± SD (AChE (Human); 10^-4 M) [%]	AChE (Electrophorus electricus) inhibitory activity (%) ± SD ([1]; 10^-3 M) [%]	AChE (Electrophorus electricus) inhibitory activity (%) ± SD ([1]; 10^-4 M) [%]	BChE (Human) inhibitory activity (%) ± SD (BChE (Human); 10^-3 M) [%]	BChE (Human) inhibitory activity (%) ± SD (BChE (Human); 10^-4 M)	BChE (Human) inhibitory activity (%) ± SD (BChE (Human); 10^-5 M) [%]	BChE (Human) inhibitory activity (%) ± SD (BChE (Human); 10^-6 M) [%]	BChE (Human) inhibitory activity (%) ± SD (BChE (Human); 10^-7 M) [%]	BChE (Human) inhibitory activity (%) ± SD (BChE (Human); 10^-8 M) [%]	BChE (Human) inhibitory activity (%) ± SD (BChE (Human); 10^-9 M) [%]	IC50 (BChE (Human)) [µM]	IC50 (BChE (Equine)) [µM]	BChE (Equine) inhibitory activity (%) ± SD (BChE (Equine); 10^-3 M) [%]	BChE (Equine) inhibitory activity (%) ± SD (BChE (Equine); 10^-4 M)	BChE (Equine) inhibitory activity (%) ± SD (BChE (Equine); 10^-5 M) [%]	BChE (Equine) inhibitory activity (%) ± SD (BChE (Equine); 10^-6 M) [%]	BChE (Equine) inhibitory activity (%) ± SD (BChE (Equine); 10^-7 M) [%]	BChE (Equine) inhibitory activity (%) ± SD (BChE (Equine); 10^-8 M) [%]	BChE (Equine) inhibitory activity (%) ± SD (BChE (Equine); 10^-9 M) [%]	also measured
CN(C)CCN1CCN(C(=S)SCC(=O)Nc2c3ccccc3nc3ccccc23)CC1 [Compound 4a, 2-(9-Acridinylamino)-2-oxoethyl 4-(2-(dimethylamino)ethyl)piperazine-1-carbodithioate]	62.20±1.05	18.15 ± 0.51	60.13±1.54	17.03 ± 0.48	98.50±2.46	* 93.25 ± 2.24%	86.20±1.46	55.00±1.11	36.21±0.97	30.20±0.68	15.79±0.81	0.243 ± 0.009	0.226 ± 0.008	99.13±3.21	* 91.13 ± 2.94%	84.80±2.76	52.10±1.04	39.90±0.81	28.24±0.54	19.69±0.99	IC50 [2]: 26.8 µM
CN(C)CCCN1CCN(C(=S)SCC(=O)Nc2c3ccccc3nc3ccccc23)CC1 [Compound 4b, 2-(9-Acridinylamino)-2-oxoethyl 4-(3-(dimethylamino)propyl)piperazine-1-carbodithioate]	75.66±1.17	35.49 ± 1.00	79.95±1.78	32.41 ± 1.01	97.55±2.05	* 84.18 ± 2.21%	72.99 ±1.35	45.26±0.85	40.87±0.67	35.28±0.53	28.74±0.50	0.222 ± 0.01	0.264 ± 0.012	98.16±3.11	* 82.50 ± 2.07%	70.30 ±1.80	46.10±0.74	41.80±0.81	33.04±0.78	26.35±0.77	IC50 [2]: 25.6 µM
O=C(CSC(=S)N1CCN(CCO)CC1)Nc1c2ccccc2nc2ccccc12 [Compound 4e, 2-(9-Acridinylamino)-2-oxoethyl 4-(2-hydroxyethyl)piperazine-1-carbodithioate]	50.22±1.12	10.13 ± 0.51	48.67±1.51	7.09 ± 0.64	98.95±2.10	* 96.57 ± 2.03%	55.00±1.20	30.62±1.28	26.54±0.74	17.89±0.53	8.72±0.30	1.37 ± 0.057	1.42 ± 0.068	97.00±3.16	* 95.98 ± 2.88%	57.53±1.89	29.52±1.07	24.26±0.54	18.89±0.84	10.77±0.58	IC50 [2]: 325 µM
O=C(CSC(=S)N1CCN(c2ccc(Cl)cc2)CC1)Nc1c2ccccc2nc2ccccc12 [Compound 4i, 2-(9-Acridinylamino)-2-oxoethyl 4-(4-chlorophenyl)piperazine-1-carbodithioate]	89.20±1.25	33.85 ± 1.15	86.41±2.91	35.91 ± 1.57	98.22±2.14	* 72.90 ± 1.08%	42.99±1.02	35.00±0.87	30.49±0.56	21.77±0.40	20.69±0.38	2.1 ± 0.085	2.04 ± 0.068	99.37±3.41	* 69.51 ± 1.16%	44.32±0.79	38.72±0.82	33.65±0.45	26.52±0.80	25.73±0.70	IC50 [2]: > 1000 µM
O=C(CSC(=S)N1CCOCC1)Nc1c2ccccc2nc2ccccc12 [Compound 4r, 2-(9-Acridinylamino)-2-oxoethyl morpholine-4-carbodithioate]	64.93±1.21	40.70 ± 1.00	68.20±1.69	37.33 ± 1.03	94.18±2.62	43.29 ± 1.17%								91.26±3.42	45.30 ± 1.88%						
O=C(CSC(=S)N1CCCCC1)Nc1c2ccccc2nc2ccccc12 [Compound 4s, 2-(9-Acridinylamino)-2-oxoethyl piperidine-1-carbodithioate]	49.05±0.88	35.20 ± 1.12	44.51±0.96	32.17 ± 1.23	84.27±2.16	34.99 ± 0.63%								86.72±3.07	38.40 ± 0.74%						
CC1CCCCN1C(=S)SCC(=O)Nc1c2ccccc2nc2ccccc12 (centres unmarked) [Compound 4t, 2-(9-Acridinylamino)-2-oxoethyl 2-methylpiperidine-1-carbodithioate]	85.44±1.72	14.51 ± 0.44	81.22±2.77	15.94 ± 0.42	97.28±3.00	* 54.26 ± 1.27%	48.19±1.08	38.35±0.88	36.47±0.60	32.40±0.57	29.77±0.41	1.61 ± 0.062	1.52 ± 0.072	96.06±3.61	* 55.00 ± 1.74%	49.04±0.68	41.33±0.41	35.75±0.53	30.66±0.59	28.50±0.66	
O=C(CSC(=S)N1CCC(Cc2ccccc2)CC1)Nc1c2ccccc2nc2ccccc12 [Compound 4u, 2-(9-Acridinylamino)-2-Oxoethyl 4-Benzylpiperidine-1-Carbodithioate]	65.77±1.17	30.71 ± 0.52	69.30±1.28	25.88 ± 0.74	38.33±0.87	31.21 ± 0.50%								32.20±0.59	29.50 ± 0.48%						
